Data as given in patent US8633201B2, “Thienopyrimidines having Mnk1/Mnk2 inhibiting activity for pharmaceutical compositions” (Boehringer Ingelheim International GmbH, priority 2006, dated 2014).

Key:
db/db mice = experiment: 14-day oral treatment study in db/db mice (body weight, blood glucose, plasma and pancreas parameters); assay type: in vivo; conditions: oral gavage
Procedure: BKS.Cg-m+/+Lepr^db/J (Charles River Laboratories) male mice (commonly referred to as db/db mice) are deficient in the […] due a spontaneous point mutation. They are maintained on the C57BL6/J strain.
Mice are housed four by cage at a temperature of 22-24° C. and a day/night cycle of […] (05:00-19:00-05:00), and obtain standard chow and tap water ad libitum. Mice are allowed to adapt to housing and environment for 14 days prior to substance administration.
Compound suspensions in 0.3% Methylcellulose in saline are prepared freshly just prior to administration.
Substances will be administered by oral gavage in the morning at 07:00, one hour before determining fed blood glucose levels and body weight. In the evening, substance is administered between 17:00 and 18:00. Animals are visually monitored for 1 hour after the administrations.
Dosing is chosen based on the results of pharmacokinetic (PK) and dose tolerability studies. […]
Animals are being supplied one week in advance to allow for adaptation to housing and environment. During that time, body weight and fed blood glucose are measured daily. […]
Bodyweight and bloodglucose were measured three times a week. At the end of the study pancreatic insulin content and plasma parameters were determined.

[1] = system: cell culture cells, transfected with Mnk2 (Mnk2a or Mnk2b) or Mnk1; conditions: addition to cell culture cells transfected with Mnk2 (Mnk2a or Mnk2b) or Mnk1; cited from earlier work

Q: With CN(CCOc1ccc(CC2SC(=O)NC2=O)cc1)c1ccccn1 (stereo not drawn) [Rosiglitazone] as the compound, how does the “body weight compared to vehicle” value (db/db mice; d1 to d14, FIG. 1) read?
A: significant increased in body weight

Q: For Nc1ncnc2n[nH]c(Nc3ccc(F)cc3)c12 [CGP57380], which “phosphorylated eIF4E” value [1] is on record?
A: strong reduction

Q: With NC(=O)c1ccc(Nc2ncnc3ccsc23)c(OC2CCOC2)c1 (stereo not drawn) [Compound 15, 3-(Tetrahydrofuran-3-yloxy)-4-(thieno[3,2-d]pyrimidin-4-ylamino)-benzamide] as the compound, how does the “random fed blood glucose” value (db/db mice; during the 14 day study, FIG. 2) read?
A: progressive improvement
